Format in all cases: in vivo, BALB/c mice
In one assay the test system is mucus. The assay can be described thus: PAS staining of lung tissue, OVA-induced asthma. As to conditions: 5 days, vs OVA-sensitized group. As to the method:
(§1) In test groups, the animals determined to be healthy during the acclimation period were ranked by measuring the weight, and were randomly grouped so that the average weight of each group was uniform. The animals were divided into a total of 9 groups: a control group; a control group with OVA-induced asthma; a positive control group; groups administered with each of 50 mg/kg, 125 mg/kg and 250 mg/kg of oleic acid; and groups administered with each of 5 mg/kg, 25 mg/kg and 50 mg/kg of palmitic acid. The animals were sensitized via intraperitoneal injection of OVA once a week for 2 weeks after the acclimation period. During 5 days of week 3, dexamethasone (DEX) and the test substances oleic acid and palmitic acid were orally administered in the morning and 5% OVA solution was inhaled in the afternoon. The test substance was orally administered in an amount of 28 μL per weight (g) of the experimental animal, and OVA for sensitization was administered in a constant amount regardless of the weight. After 5 days of administration, autopsy was performed the next day.
Storage of tissue: ½ of the autopsy tissue was frozen quickly in liquid nitrogen, stored in an ultralow-temperature freezer or liquid nitrogen container (about −75 ° C.), and used for PCR/Western blotting, and the remaining ½ was stored in 10% formalin solution and used for histopathology and immunohistochemistry (IHC). […]

The test system of the next assay is IgE. Briefly: Analysis of IgE in BALF (Mouse IgE ELISA), OVA-induced asthma. As to conditions: 5 days, vs OVA-sensitized group. As for the experimental part: as §1, with “day. Immunoglobulin E (IgE) is a type of protein called antibody that plays an important role in allergic reactions. When IgE is exposed to a certain substance, the immune system begins to produce IgE in order to protect the body. […] 50 μL of a stop solution was added to each well, and the absorbance at 450 nm was measured.” for “day.”
On the technique in general: ELISA stands for enzyme-linked immunosorbent assay.

The subject of another assay is IFN-γ. Briefly: ELISA analysis in lung tissue, OVA-induced asthma. As to conditions: palmitic acid 5, 25, 50 mg/kg oral, vs OVA, FIG. 20. As to the method: (§2) In test groups, the animals determined to be healthy during the acclimation period were ranked by measuring the weight, and were randomly grouped so that the average weight of each group was uniform. The animals were divided into a total of 9 groups: a control group; a control group with OVA-induced asthma; a positive control group; groups administered with each of 50 mg/kg, 125 mg/kg and 250 mg/kg of oleic acid; and groups administered with each of 5 mg/kg, 25 mg/kg and 50 mg/kg of palmitic acid. The animals were sensitized via intraperitoneal injection of OVA once a week for 2 weeks after the acclimation period. During 5 days of week 3, dexamethasone (DEX) and the test substances oleic acid and palmitic acid were orally administered in the morning and 5% OVA solution was inhaled in the afternoon. The test substance was orally administered in an amount of 28 μL per weight (g) of the experimental animal, and OVA for sensitization was administered in a constant amount regardless of the weight. After 5 days of administration, autopsy was performed the next day. To analyze the levels of IFN-γ, IL-12p40, IL-4, IL-5, IL-6, and TNF-α in lung tissue, OptEIA mouse ELISAs were purchased from BD Biosciences. The IL-13 levels were assessed using the AbFrontier Cymax mouse FT ISA kit (AbFrontier, Seoul, Korea). All assays were performed according to the manufacturers' guidelines. All lung samples were prepared by a lysis buffer made with a protease inhibitor cocktail and an RIPA buffer (Thermo Fisher Scientific). Aliquots of lung tissue from all groups were weighed and homogenized with lysis buffer. They were then centrifuged at 8,200 rpm for 15 minutes, and the supernatants were harvested and measured using a microplate reader (EZ Read 400, Biochrom, Cambourne, UK).

Another assay relates to IL-4. Briefly: ELISA analysis in lung tissue, OVA-induced asthma. As to conditions: palmitic acid 5, 25, 50 mg/kg oral, particularly the 50 mg/kg group, FIG. 22. As for the experimental part: as §2
Another assay deals with TNF-α. The assay can be described thus: ELISA analysis in lung tissue, OVA-induced asthma. As to conditions: palmitic acid 5, 25, 50 mg/kg oral, particularly the 50 mg/kg group, FIG. 25. As to the method: as §2

The record followed here is patent publication US20200246298A1, “Composition for Preventing or Treating Asthma Comprising Fatty Acid as Active Ingredient” (Dongshin University Industry-Academy Cooperation, priority 2019, published 2020).

Take `CCCCCCCCCCCCCCCC(=O)O` [palmitic acid]: in the assay with mucus (palmitic acid 5, 25, 50 mg/kg oral, FIG. 18), the “mucus (PAS staining)” value is on record as “dose-dependently decreased”. The “quantity of IgE” value in the assay on IgE (palmitic acid 5, 25, 50 mg/kg oral, FIG. 14) is reported as “dose-dependently decreased”. The “expression level of IFN-γ” value with IFN-γ was “dose-dependently decreased”. The “expression level of IL-4” value in the assay with IL-4 was “decreased”. For the same compound, in the assay with TNF-α, the “expression level of TNF-α” value was “decreased”.

`CCCCCCCC/C=C\CCCCCCCC(=O)O` [oleic acid]: the “mucus (PAS staining)” value in the assay with mucus (oleic acid 50, 125, 250 mg/kg oral, FIG. 17) is “dose-dependently decreased”. For the same compound, the “quantity of IgE” value in the assay with IgE (oleic acid 50, 125, 250 mg/kg oral, FIG. 13) is recorded as “dose-dependently decreased”.
